Experimental data from patent US5693628A, “11-benzaldoxime-estra-diene derivatives, methods for their production and pharmaceuticals containing these compounds” (priority 1994, dated 1997).

How the values were obtained:
[1] = molecular target: T1, progesterone receptor (Oryctolagus cuniculus, UniProt P06186); test: relative molar bonding affinity to progesterone receptor (competitive bonding); format: binding; settings: progesterone = 100%; uterine cytosol of estradiol-primed rabbit; 3H-ORG 2058, 5 nM; 18 h, 0-4° C.
T1 construct: uterine cytosol of the estradiol-primed rabbit; from tissue; host or cells: uterus (cytosol) of estradiol-primed rabbit
T1 sequence (P06186 1-930): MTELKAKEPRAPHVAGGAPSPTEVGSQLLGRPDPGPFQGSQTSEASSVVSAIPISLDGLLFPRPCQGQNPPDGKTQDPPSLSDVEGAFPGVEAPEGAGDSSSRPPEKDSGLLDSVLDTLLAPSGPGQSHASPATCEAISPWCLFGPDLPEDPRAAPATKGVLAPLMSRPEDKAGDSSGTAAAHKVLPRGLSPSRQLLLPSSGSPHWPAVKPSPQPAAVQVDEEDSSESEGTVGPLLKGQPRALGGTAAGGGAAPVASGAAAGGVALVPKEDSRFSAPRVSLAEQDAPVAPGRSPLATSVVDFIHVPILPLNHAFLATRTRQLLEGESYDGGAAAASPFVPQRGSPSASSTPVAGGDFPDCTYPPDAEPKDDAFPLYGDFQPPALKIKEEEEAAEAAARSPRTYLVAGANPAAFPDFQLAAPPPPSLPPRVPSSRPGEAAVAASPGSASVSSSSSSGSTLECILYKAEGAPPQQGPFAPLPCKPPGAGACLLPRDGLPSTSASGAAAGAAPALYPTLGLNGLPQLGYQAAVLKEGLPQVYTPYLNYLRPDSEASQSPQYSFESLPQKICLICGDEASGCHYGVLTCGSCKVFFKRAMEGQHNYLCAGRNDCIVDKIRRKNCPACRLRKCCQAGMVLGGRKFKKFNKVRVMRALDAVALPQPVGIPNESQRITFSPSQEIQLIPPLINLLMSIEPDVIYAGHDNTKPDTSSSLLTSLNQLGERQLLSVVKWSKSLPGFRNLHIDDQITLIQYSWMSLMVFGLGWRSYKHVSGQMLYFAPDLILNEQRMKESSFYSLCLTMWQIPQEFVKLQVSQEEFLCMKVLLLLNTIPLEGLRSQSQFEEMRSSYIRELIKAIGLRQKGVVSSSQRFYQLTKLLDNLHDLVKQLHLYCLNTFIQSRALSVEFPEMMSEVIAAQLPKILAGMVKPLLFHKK
Description: (§1) Measurement of bonding affinity for receptors
(§2) Receptor bonding affinity was determined by competitive bonding of a specifically binding ^3 H labelled hormone (tracer) and the compound to be tested to receptors in the cytosol from animal target organs. It was tried to obtain receptor saturation and a balanced reaction. The following incubation conditions were selected:
Progesterone receptor: uterine cytosol of the estradiol-primed rabbit, kept at -30° C. in TED buffer (20 mM Tris/HCl, pH 7.4; 1 mM ethylene diamine tetraacetate, 2 mM dithio threitol) with 250 mM of saccharose.
(§3) After an incubation period of 18 hours at 0°-4° C., bonded and free steroid was separated by mixing in active carbon/dextrane (1%/0.1%), centrifuging off and measuring the bonded ^3 H activity in the supernatant.
(§4) The IC50 for the compound to be tested and for the reference substance were determined from measurements in series of concentrations.

[2] = molecular target: T2, glucocorticoid receptor (Rattus norvegicus, UniProt P06536); test: relative molar bonding affinity to glucocorticoid receptor (competitive bonding); format: binding; settings: dexamethasone = 100%; thymus cytosol of adrenalectomized rat; 3H-dexamethasone, 20 nM; 18 h, 0-4° C.
T2 construct: thymus cytosol of the adrenalectomized rat; from tissue; host or cells: thymus (cytosol) of adrenalectomized rat
T2 sequence (P06536 1-795): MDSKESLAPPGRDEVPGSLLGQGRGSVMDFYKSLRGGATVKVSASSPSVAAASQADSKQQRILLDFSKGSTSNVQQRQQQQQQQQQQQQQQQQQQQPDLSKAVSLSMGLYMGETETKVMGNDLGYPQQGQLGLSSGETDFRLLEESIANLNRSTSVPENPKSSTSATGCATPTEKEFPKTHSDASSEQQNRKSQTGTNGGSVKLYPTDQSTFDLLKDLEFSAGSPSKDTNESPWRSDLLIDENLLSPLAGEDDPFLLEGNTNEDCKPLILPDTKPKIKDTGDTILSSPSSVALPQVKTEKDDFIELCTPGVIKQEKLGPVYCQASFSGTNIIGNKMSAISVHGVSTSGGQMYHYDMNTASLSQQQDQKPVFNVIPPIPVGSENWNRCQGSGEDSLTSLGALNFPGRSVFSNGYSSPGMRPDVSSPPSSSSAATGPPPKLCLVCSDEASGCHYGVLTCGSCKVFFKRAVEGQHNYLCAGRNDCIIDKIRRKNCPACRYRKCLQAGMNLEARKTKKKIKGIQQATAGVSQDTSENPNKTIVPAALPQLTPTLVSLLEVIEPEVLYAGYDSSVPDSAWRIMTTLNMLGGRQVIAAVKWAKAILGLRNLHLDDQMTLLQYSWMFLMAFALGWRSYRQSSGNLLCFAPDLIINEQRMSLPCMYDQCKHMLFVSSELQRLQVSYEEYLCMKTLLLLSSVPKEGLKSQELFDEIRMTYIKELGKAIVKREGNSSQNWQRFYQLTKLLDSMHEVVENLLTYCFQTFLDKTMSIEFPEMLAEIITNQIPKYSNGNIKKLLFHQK
Description: as §1, §2
Glucocorticoid receptor: thymus cytosol of the adrenalectomized rat, thymi kept at -30° C., buffer: TED. Tracer: ^3 H-dexamethasone, 20 nM; reference substance: dexamethasone.
as §3, §4

[3] = molecular target: T3, oestrogen receptor (Oryctolagus cuniculus, UniProt G1SML6); test: relative molar bonding affinity to oestrogen receptor (competitive bonding); format: binding; settings: estradiol = 100%; uterine cytosol of immature rabbit; 3H-ethinyl estradiol, 3 nM; 18 h, 0-4° C.
T3 construct: uterine cytosol of the immature rabbit; from tissue; host or cells: uterus (cytosol) of immature rabbit
T3 sequence (G1SML6 1-598): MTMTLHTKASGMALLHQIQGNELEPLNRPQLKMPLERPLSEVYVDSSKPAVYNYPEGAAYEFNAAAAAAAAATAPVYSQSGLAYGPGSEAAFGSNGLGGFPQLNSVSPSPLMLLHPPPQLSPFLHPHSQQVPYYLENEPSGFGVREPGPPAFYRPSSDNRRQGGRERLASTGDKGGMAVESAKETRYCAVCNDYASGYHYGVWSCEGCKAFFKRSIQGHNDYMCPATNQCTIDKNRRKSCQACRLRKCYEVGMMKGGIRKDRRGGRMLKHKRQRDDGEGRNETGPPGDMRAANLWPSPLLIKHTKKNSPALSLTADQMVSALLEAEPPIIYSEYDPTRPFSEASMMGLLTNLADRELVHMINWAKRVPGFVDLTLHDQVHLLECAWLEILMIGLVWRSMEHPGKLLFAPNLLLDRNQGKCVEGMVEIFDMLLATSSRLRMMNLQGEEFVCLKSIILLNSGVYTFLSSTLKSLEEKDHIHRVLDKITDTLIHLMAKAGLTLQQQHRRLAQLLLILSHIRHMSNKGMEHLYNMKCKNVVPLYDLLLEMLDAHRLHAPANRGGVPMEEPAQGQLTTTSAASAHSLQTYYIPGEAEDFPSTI
Description: as §1, §2
Oestrogen receptor: uterine cytosol of the immature rabbit, kept at -30° C. in TED buffer with 250 mM of saccharose. Tracer: ^3 H-ethinyl estradiol, 3 nM; reference substance: 17β-estradiol.
as §3
The IC50 for the compound to be tested and for the reference substance were determined from measurements in series of concentrations. The quotient of both values (×100%) is the relative molar bonding affinity.

[4] = test system: early gravidity in the rat; test: Early abortive effect / inhibition of early gravidity in the rat; format: in vivo; settings: 5th to 7th day of pregnancy; for complete gravidity inhibition % / complete gravidity inhibition N*/N (females not pregnant/inseminated females): empty uteri
Description: Inhibition of early gravidity in the rat
Female rats are mated in the pro-oestrus. If semen is found in the vaginal smear on the next day, this day is counted as day 1 (=d1) of the gravidity. Treatment with the test substance or vehicle is applied on d5-d7, autopsy is carried out on d9. The substances are injected subcutaneously in 0.2 ml of vehicle (benzyl benzoate/castor oil 1+4).

[5] = test system: uterine weight in cyclic guinea pigs; test: Influence on uterine weight in cyclic guinea pigs; format: in vivo, guinea pig
Text: FIG. 1. is a chart showing a comparison of the influence on uterine weight in cyclic guineau pigs when treated with the antigestagen agents RU 486, a control (the vehicle), and a compound of the present invention, J 867 (as prepared in accordance with Example 1).
FIG. 1 compares the influence of antigestagen treatment of cyclic guinea pigs on uterine weights for J 867 and RU 486.
Treatment of female guinea pigs with antigestagen
Treatment of adult female guinea pigs from day 10 to day 18 of the cycle (autopsy). Administration of the specified doses using subcutaneous osmotic pumps (Type 2 ML1 ALZET). Vehicle: […] propylene glycol/24 hrs.

Compound | relative molar bonding affinity (RBA) to progesterone receptor [1] | relative molar bonding affinity (RBA) to glucocorticoid receptor [2] | relative molar bonding affinity (RBA) to oestrogen rec. [3] | other results
C[C@]12C[C@H](c3ccc(C=NO)cc3)C3=C4CCC(=O)C=C4CC[C@H]3[C@@H]1CC[C@@]2(O)CCl [Example 5, 17α-chloromethyl-11β-[4-(hydroximinomethyl)phenyl]-17β-hydroxy-estra-4,9-diene-3-on] | 90% | 32% | < 0.1% | 
CC#C[C@]1(O)CC[C@H]2[C@@H]3CCC4=CC(=O)CCC4=C3[C@@H](c3ccc(N(C)C)cc3)C[C@@]21C [RU 486, Mifepristone, reference compound] |  | 685% |  | complete gravidity inhibition % ([4]; 0.3 mg/animal/day s.c.): 0%; complete gravidity inhibition N*/N (females not pregnant/inseminated females) ([4]; 0.3 mg/animal/day s.c.): 0/5; complete gravidity inhibition % ([4]; 1.0 mg/animal/day s.c.): 40%; complete gravidity inhibition N*/N (females not pregnant/inseminated females) ([4]; 1.0 mg/animal/day s.c.): 2/5; complete gravidity inhibition % ([4]; 3.0 mg/animal/day s.c.): 100%; complete gravidity inhibition N*/N (females not pregnant/inseminated females) ([4]; 3.0 mg/animal/day s.c.): 5/5; ED 50 ([4]; s.c., graphic determination): 1.3 mg/animal/day; uterine weights of cyclic guinea pigs, high dose ([5]; 6 mg/24 hrs, s.c. osmotic pump, day 10 to 18 of cycle): reduce the uterine weights of the treated animals; uterine weights in the anovulatorial cycle in guinea pigs ([5]; doses at which RU 486 increases uterine weights, compared with control animals): increases uterine weights; uterine weights of cyclic guinea pigs, low dose ([5]; low dosis, s.c. osmotic pump, day 10 to 18 of cycle): slight gain in uterine weights

The next lines start with results.

relative molar bonding affinity (RBA) to progesterone receptor [1] | relative molar bonding affinity (RBA) to glucocorticoid receptor [2] | relative molar bonding affinity (RBA) to oestrogen rec. [3] | Compound | other results
136% | 82% | < 0.1% | COC[C@]1(OC)CC[C@H]2[C@@H]3CCC4=CC(=O)CCC4=C3[C@@H](c3ccc(C=NOC)cc3)C[C@@]21C [Example 2, 11β-[4-(methoximinomethyl)phenyl]-17β-methoxy-17α-methoxymethyl-estra-4,9-diene-3-on] | 
236% | 73% | < 0.1% | COC[C@]1(OC)CC[C@H]2[C@@H]3CCC4=CC(=O)CCC4=C3[C@@H](c3ccc(C=NOC(C)=O)cc3)C[C@@]21C [Example 3, 11β-[4-(acetyloximinomethyl)phenyl]-17β-methoxy-17α-methoxymethyl-estra-4,9-diene-3-on] | 
294% | 66% | < 0.1% | CCOC(=O)ON=Cc1ccc([C@H]2C[C@@]3(C)[C@@H](CC[C@]3(COC)OC)[C@@H]3CCC4=CC(=O)CCC4=C32)cc1 [Example 4] | 
22% | 39% |  | CN(C)c1ccc([C@H]2C[C@]3(C)[C@@H](CC[C@]3(O)CCCO)[C@@H]3CCC4=CC(=O)CCC4=C32)cc1 [ZK 98299, Onapristone, reference compound] | 
